“Also recorded” adds a separate entry of the source. Read-outs that look alike come from different tables or passages of the source.
Tests used:
[1] = system: β-catenin-dependent Wnt-pathway; experiment: TopFlash luciferase reporter assay, CHIR99021-stimulated, HCC1395; assay type: cell-based; conditions: for Emax / IC50: Homo sapiens, HCC1395, HCC1395, stimulation with CHIR99021 (GSK3β inhibitor); for Emax: read-out: HCC1395 TopFlash Efficacy; for IC50: read-out: HCC1395 TopFlash IC50
[2] = system: β-catenin-dependent Wnt-pathway; experiment: TopFlash luciferase reporter assay, Wnt3a-stimulated, HCC1395; assay type: cell-based; conditions: Homo sapiens, stimulation with Wnt3a
From the text: The advantage of our platform lies in its ability to discriminate between inhibitors of the β-catenin-dependent Wnt signaling acting at upstream vs. downstream levels of the pathway, by stimulating the pathway at the different levels either with Wnt3a or with a GSK3β inhibitor, like CHIR99021 ([Shaw et al., 2019b]). Both stimulations abolish formation of the destruction complex, a multiprotein complex consisting of Axin, adenomatous polyposis coli (APC), glycogen synthase kinase three beta (GSK3β), and casein kinase one alpha (CK1α). Upon inactivation of the complex, β-catenin accumulates in the cytoplasm and translocates into the nucleus where it interacts with transcription factors. These downstream events are quantified by a Luciferase transcription-based readout assay (TopFlash assay).

[3] = Cytotoxicity by Renilla luciferase under CMV promoter; conditions: human
HCC1395 cells = experiment: as above; conditions: for HCC1395 Cytotoxicity Efficacy: human
BT-20 TNBC cell line = experiment: MTT survival assay BT-20; assay type: cell-based; conditions: Homo sapiens, BT-20
Experimental: (§1) Indicated TNBC cell lines were detached and resuspended at 120,000 cells/ml and added into each well of a transparent 384-well plate in the final volume of 20 µl/well. The cells were maintained in DMEM containing 10% FBS at 37°C, 5% CO2 overnight. Next day, the medium in each well was replaced by 40 μl of the fresh one containing the indicated concentrations of compounds. In case of drug combination experiments, each compound dilution was delivered in corresponding well in 20 μl of medium. […] After incubation for 3–4 days, depending on the cell line, the medium in each well was replaced by 25 μl of 0.5 mg/ml Thiazolyl blue solution in 1xPBS following by incubation for 3 h at 37°C. Then the solution was removed and 25 μl DMSO was added into each well. Absorbance at 510 nm was measured in a Tecan Infinite M200 PRO plate reader.

HCC1395 TNBC cell line = experiment: MTT survival assay HCC1395; assay type: cell-based; conditions: Homo sapiens, HCC1395; Table S2; read-out: MTT HCC-1395 IC50
Experimental: as §1

[4] = system: MDA-MB-231 TNBC cell line; experiment: MTT survival assay MDA-MB-231; assay type: cell-based; conditions: for IC50: Homo sapiens, MDA-MB-231
Experimental: as §1

HCC1806 TNBC cell line = experiment: MTT survival assay HCC1806; assay type: cell-based; conditions: for IC50: Homo sapiens, HCC1806
Experimental: as §1

[5] = system: MDA-MB-468 TNBC cell line; experiment: MTT survival assay MDA-MB-468; assay type: cell-based; conditions: Homo sapiens, MDA-MB-468; Table S2
Experimental: as §1

[6] = system: non-cancerous breast epithelial cell line MCF10a; experiment: MTT survival assay MCF10a; assay type: cell-based; conditions: for IC50: Homo sapiens, MCF-10A
Experimental: as §1

TNBC cell proliferation = experiment: Loewe synergism with docetaxel in anti-proliferative assay (COMBENEFIT); assay type: cell-based; conditions: Loewe model
From the text: The Wnt-pathway is implicated in chemoresistance to conventional chemotherapies and drives a poor chemotherapy response in a broad range of tumors ([O’Reilly et al., 2015]; [Martin-Orozco et al., 2019]; [Zhong and Virshup, 2020]). To assess how combination with our compounds affects the anti-proliferative capacity of docetaxel—one of the first-line treatments for TNBC ([Mandapati and Lukong, 2022]), we performed the Loewe synergism assessment over a complete dose-response range of both compounds followed by analysis in the COMBENEFIT software in Matlab (Figure 7 and Supplementary Figure S1) ([Di Veroli et al., 2016]).
as §1
The data was visualized analyzed in either GraphPad Prism nine using indicated statistical analysis or in R using gplots package ([Warnes et al., 2009]). Dataset from CCLE ([Barretina et al., 2012]) were used in the study and pathway enrichment analysis was performed by DAVID online tool ([Sherman et al., 2022]). Drug combination data was treated in COMBENEFIT software ([Di Veroli et al., 2016]). Network was built using Cytoscape with StringDB plugin ([Shannon et al., 2003]; [Szklarczyk et al., 2021]).

[7] = system: panel of luciferase reporters with basal activities in HCC1395 cells; experiment: Panel of other luciferase transcriptional reporters in HCC1395; assay type: cell-based; conditions: HCC1395, 5 µM
Experimental: Compound 5d (IC50 = 0.6 µM, Table 2) was used as a representative to analyze the selectivity of the chemotype towards the Wnt-pathway, by profiling it against a panel of different transcriptional reporters with significant basal activities in HCC1395 cells (Figure 5). […] We thus conclude that the anti-proliferative effect of the compound is related exclusively to the suppressed Wnt signaling.

[8] = Table S2, read-out: MTT BT-20 IC50
[9] = Table S2, read-out: MTT MDA-MB-231 IC50
[10] = Table S2, read-out: MTT HCC1806 IC50
[11] = Table S2, read-out: MTT MCF10 IC50
[12] = Figure 3B heatmap, read-out: IC50, μM (HCC1806)
[13] = Figure 3B heatmap, read-out: IC50, μM (MCF10)
[14] = Figure 3B heatmap, read-out: IC50, μM (MDA-MB-231)

Compound | IC50 [1] [µM] | Emax [1] [%] | IC50 (BT-20 TNBC cell line; [8]) [µM] | IC50 (HCC1395 TNBC cell line) [µM] | IC50 [4, 9] [µM] | IC50 (HCC1806 TNBC cell line; [10]) [µM] | IC50 [5] [µM] | IC50 [6, 11] [µM] | MTT MCF10 Comments ([6]; Table S2) | IC50 ([3]; HCC1395 Cytotoxicity IC50) [µM] | HCC1395 Cytotoxicity Efficacy (HCC1395 cells) [%] | IC50 (HCC1806 TNBC cell line; [12]) [µM] | IC50 [6, 13] [µM] | effect of co-treatment with docetaxel (TNBC cell proliferation) | GSK HCC1395 Renilla Comments (HCC1395 cells) | MTT MDA-MB-231 Comments ([4]; Table S2) | MTT HCC1806 Comments (HCC1806 TNBC cell line; Table S2) | further results
c1ccc(CNc2ncnc3sccc23)cc1 [Compound 4a, N-benzylthieno[2,3-d]pyrimidin-4-amine] | 8.47 | 72 | 16.3 | 2.52 | 19.2 | 2.33 | 2.13 | > 10 | Inactive | – | – | – | – | – | – | – | – | IC50 [2]: 8.31 µM; IC50 [3]: > 50 µM; Cytotoxicity (Renilla) in words (HCC1395 cells; HCC1395): not toxic; also recorded: no cytotoxic activity; GSK HCC1395 Renilla Comments (HCC1395 cells; Table S2): Non-toxic; MTT MDA-MB-231 plateau ([4]; Table S2): 100
COc1cc(CNc2ncnc3sccc23)ccc1F [Compound 4p, N-(4-fluoro-3-methoxybenzyl)thieno[2,3-d]pyrimidin-4-amine] | 2.59 ± 1.08 | 71.4 ± 11.1 | > 50 | 13.6 | > 50 | > 50 | > 50 | > 50 | – | 4.04 | 41.8 | > 10 | > 10 | exclusively synergistic effects | – | – | – | GSK HCC1395 Comments ([1]; Table S2): Toxic
COc1ccccc1C(C)Nc1ncnc2sccc12 (centres unmarked) [Compound 5a, N-(1-(2-methoxyphenyl)ethyl)thieno[2,3-d]pyrimidin-4-amine] | 0.77 ± 0.44 | 46.1 ± 3.44 | 4.08 | 0.12 | > 10 | > 10 | 0.1 | > 10 | Inactive | > 50 | – | > 50 | – | exclusively synergistic effects | Non-toxic | Inactive | Inactive | –
CC(Nc1ncnc2sccc12)c1ccc(Cl)cc1 (centres unmarked) [Compound 5d, N-(1-(4-chlorophenyl)ethyl)thieno[2,3-d]pyrimidin-4-amine] | 0.6 ± 0.33 | 55.4 ± 24.3 | 6.89 | 0.39 | > 10 | 9.12 | 1.67 | 6.48 | – | 24 ± 4.98 | 100 ± 0 | > 50 | > 10 | – | – | Inactive | – | IC50 (BT-20 TNBC cell line; Figure 3B heatmap, no activity up to maximal tested concentration, read-out: IC50, μM (BT20)): > 50 µM; inhibition of other signaling pathway reporters [7]: none other signaling pathways are affected; also recorded: no inhibition
Clc1ccc(CCNc2ncnc3sccc23)cc1 [Compound 5m, N-(4-chlorophenethyl)thieno[2,3-d]pyrimidin-4-amine] | 1.79 ± 1.45 | 82 ± 21.1 | 6.72 | 3.7 | > 50 | 13.1 | 8.46 | > 50 | Inactive | > 50 | – | – | > 10 | exclusively synergistic effects | Non-toxic | – | – | IC50 [4, 14]: > 10 µM
COc1cccc(CNc2ncnc3ccccc23)c1 [Compound 9b, N-(3-methoxybenzyl)quinazolin-4-amine] | – | 82.6 ± 13.5 | 1.1 | 1.05 | > 50 | > 50 | 2.62 | 40.1 | – | > 50 | – | – | – | – | Non-toxic | Inactive | Inactive | IC50 [4, 14]: > 10 µM

Further lines, with some results ahead:

IC50 [1] [µM] | Compound | Emax [1] [%] | IC50 (BT-20 TNBC cell line; [8]) [µM] | IC50 (HCC1395 TNBC cell line) [µM] | IC50 [4, 9] [µM] | IC50 (HCC1806 TNBC cell line; [10]) [µM] | IC50 [5] [µM] | IC50 [6, 11] [µM] | MTT MCF10 Comments ([6]; Table S2) | IC50 ([3]; HCC1395 Cytotoxicity IC50) [µM] | HCC1395 Cytotoxicity Efficacy (HCC1395 cells) [%] | IC50 (HCC1806 TNBC cell line; [12]) [µM] | IC50 [6, 13] [µM] | effect of co-treatment with docetaxel (TNBC cell proliferation) | GSK HCC1395 Renilla Comments (HCC1395 cells) | MTT MDA-MB-231 Comments ([4]; Table S2) | MTT HCC1806 Comments (HCC1806 TNBC cell line; Table S2) | further results
0.67 ± 0.13 | Fc1ccc(CNc2ncnc3ccccc23)cc1 [Compound 9d, N-(4-fluoro)quinazolin-4-amine] | 87.1 ± 4.09 | 2.92 | 1.15 | > 10 | > 10 | 0.8 | 12.5 | – | > 50 | – | – | – | exclusively synergistic effects | – | Inactive | Inactive | –
1.22 ± 0.33 | Cc1ccc(CNc2ncnc3ccccc23)cc1 [Compound 9f, N-(4-methyl)quinazolin-4-amine] | 51.6 ± 7.9 | 6.08 | 1.07 | > 10 | 23.4 | 0.83 | 9.42 | – | 8.13 ± 3.8 | 100 ± 0 | – | – | exclusively synergistic effects | – | Inactive | – | –
1.88 ± 0.28 | Cc1ccc(C(C)Nc2ncnc3ccccc23)cc1 (centres unmarked) [Compound 9i, N-(1-(p-tolyl)ethyl)quinazolin-4-amine] | 54.6 ± 2.9 | – | – | – | – | – | – | – | 10.3 ± 2.06 | 38.7 ± 12.8 | – | – | exclusively synergistic effects | – | – | – | –

Reference: PMC9649909, “Wnt-pathway inhibitors with selective activity against triple-negative breast cancer: From thienopyrimidine to quinazoline inhibitors” (Frontiers in Pharmacology, 2022)
